Measured values reported in ChEMBL document CHEMBL5143590, “Dihydropyrimidinone imidazoles as unique structural antibacterial agents for drug-resistant gram-negative pathogens” (Eur J Med Chem, 2022).
≈ marks a conversion by molar mass, not a printed value.

Assays:
Assay type in all cases: functional
[1] = tested on: Staphylococcus aureus; assay: Antibacterial activity against Staphylococcus aureus 29213 assessed as inhibition of bacterial growth by two fold serial dilution method
[2] = tested on: Pseudomonas aeruginosa; assay: Antibacterial activity against Pseudomonas aeruginosa assessed as inhibition of bacterial growth by two fold serial dilution method
[3] = tested on: Pseudomonas aeruginosa; assay: Antibacterial activity against Pseudomonas aeruginosa 27853 assessed as inhibition of bacterial growth by two fold serial dilution method
[4] = tested on: Acinetobacter baumannii; assay: Antibacterial activity against Acinetobacter baumannii assessed as inhibition of bacterial growth by two fold serial dilution method
[5] = tested on: Klebsiella pneumoniae; assay: Bactericidal activity against Klebsiella pneumoniae assessed as fold increase in MIC value after 16 passages by two fold serial dilution method
[6] = tested on: Escherichia coli; assay: Antibacterial activity against Escherichia coli assessed as inhibition of bacterial growth by two fold serial dilution method
[7] = tested on: Staphylococcus aureus; assay: Antibacterial activity against methicillin-resistant Staphylococcus aureus N315 assessed as inhibition of bacterial growth by two fold serial dilution method
[8] = tested on: Staphylococcus aureus; assay: Antibacterial activity against Staphylococcus aureus assessed as inhibition of bacterial growth by two fold serial dilution method
[9] = tested on: Klebsiella pneumoniae; assay: Antibacterial activity against Klebsiella pneumoniae assessed as inhibition of bacterial growth by two fold serial dilution method
[10] = tested on: Enterococcus faecalis; assay: Antibacterial activity against Enterococcus faecalis assessed as inhibition of bacterial growth by two fold serial dilution method
[11] = tested on: Acinetobacter baumannii; assay: Bactericidal activity against Acinetobacter baumannii assessed as fold increase in MIC value after 16 passages by two fold serial dilution method
[12] = tested on: Staphylococcus aureus; assay: Antibacterial activity against Staphylococcus aureus 25923 assessed as inhibition of bacterial growth by two fold serial dilution method
[13] = tested on: Escherichia coli; assay: Antibacterial activity against Escherichia coli 25922 assessed as inhibition of bacterial growth by two fold serial dilution method

**Q.** What does the source list for `CCn1cc(C(=O)O)c(=O)c2cc(F)c(N3CCNCC3)cc21` [NORFLOXACIN]?
**A.** MIC [1]: 2 µg/mL (≈ 6.26 µM); MIC [2]: 2 µg/mL (≈ 6.26 µM); MIC [3]: 0.5 µg/mL (≈ 1.57 µM); MIC [4]: 8 µg/mL (≈ 25.1 µM); fold change (FC) [5]: 32; MIC [6]: 16 µg/mL (≈ 50.1 µM); MIC [7]: 16 µg/mL (≈ 50.1 µM); MIC [8]: 2 µg/mL (≈ 6.26 µM); MIC [9]: 4 µg/mL (≈ 12.5 µM); MIC [10]: 4 µg/mL (≈ 12.5 µM); fold change (FC) [11]: 32; MIC [12]: 1 µg/mL (≈ 3.13 µM); MIC [13]: 8 µg/mL (≈ 25.1 µM)
